Laboratory results reported in patent US12486229B2, “Indole derivative and application thereof” (SHANGHAI MEDICILON INC., priority 2020, dated 2025).

Assays:
S1P1 = biological target: T1, S1P1 (Homo sapiens, UniProt P21453); assay: S1P1 overexpression cell activity by β-arrestin assay (U2OS-EDG1); type: cell-based; conditions: U2OS-EDG1 cells
T1 construct: host or cells: U2OS (human osteosarcoma) cell line, U2OS-EDG1
Protocol: The following experiments were conducted to detect the activity of the compound on S1P1 overexpression cells by β-arrestin assay. [table] [table] 3. Experimental Steps Day 1: Cell Seeding Plate and Compound Treatment • (1) Firstly, the compound was diluted by a 4-fold gradient into 10 concentration points from the concentration of 10 μM in the culture plate by using NL fluid transfer system, with 2 replicates at each concentration point. • (2) Cells were resuspended by using FreeStyle™ expression medium, and the cell density was adjusted to 7,500 cells per 40 μL suspension. The samples with test concentration were added into the well of the cell culture plate, and 40 μL cell suspension was added into the corresponding well. • (3) The above cell plates were incubated overnight in a CO2 incubator with 5% (volume fraction) at 37° C. Day 2: Detection and Data Analysis • (1) The buffer solution was prepared according to the preparation method in the instructions of LiveBLAser™-fluorescence resonance energy transfer B/G loading kit. • (2) 8 μL detection reagent was added to each well, which were shaken and mixed evenly for 1 minute, centrifugated at 1,000 rpm for 10 seconds, and incubated at 23° C. in dark for 2 hours. • 3) Detection was performed by multimode reader. • 4) The PrismDemo software was used to analyze the data and fit the curve. 4. Experimental Results

[1] = test system: TNBS induced ulcerative colitis in rats; assay: TNBS induced ulcerative colitis in rats; type: in vivo, rat; conditions: for Colon length / Colon weight / Colon weight/colon length / Ulcer area: 3 mg/kg oral gavage once a day for 7 days, day 8; for General anatomical view of colon, from excellent to poor: 7 days administration, SASP 360, Example 3 and Etrasimod 3, Ozanimod 10 mg/kg; for Weight: 3 mg/kg oral gavage once a day; for Drug efficacy intensity (colon weight): oral gavage for 7 consecutive days, doses as given in ranking
Protocol: Preparation of molding agent: 5 mL TNBS and 8.953 mL anhydrous ethanol and 26.741 sterilized water for injection. • TNBS comes from Dalian Meilun Biotechnology Co., Ltd. • Source of SPF male SD rats: Shanghai Slake Experimental Animal Co., Ltd. • Animal age at the beginning of the experiment: 8 to 10 weeks; • Animal weight at the beginning of the experiment: about 250 g; • Adaptation time: 5 to 7 days; • Animals were fasted (only water) for 24 hours. After inhalation anesthesia with isoflurane, all rats were perfused with 0.5 mL TNBS ethanol solution per rat (18 mg TNBS/rat) via rectum with latex hose, with the length of the hose entering the rectum of about 8 cm. After withdrawing the hose, the rats remained under isoflurane anesthesia, and kept in the inclined state of hip elevation for 15 minutes.
The rats after modeling were randomly divided into 5 groups: model group, positive control group using drug sulfasalazine (SASP, 360 mg/kg), test substance group using the compound of Example 3 (3 mg/kg), test substance group using Etrasimod (3 mg/kg), test substance group using Ozanimod (10 mg/kg).
At 3 hours after modeling, the animals in each group were administrated with medicine solution by oral gavage (Table 1), 5 mL/kg body weight (10 mL/kg in sulfasalazine group), once a day, for 7 consecutive days, and the feces of the animals and whether there is death were observed every day. On the 8th day, the animals were killed under CO2 overdose anesthesia followed by being dissected, the entire colon tissue was extracted, the contents of the colon were cleaned after longitudinal dissection along the mesenteric side, the colon was weighed and measured for its length, the area of the ulcer was measured, and the general situation was observed and photos were taken. Finally, the colon was fixed in 10% formalin, and H&E staining and histopathological analysis (inflammation, goblet cells, lesion depth, ulcer degree, crypt abscess) were performed.
Wherein, the compound of Example 3 of the invention, purity: 99.74%. • Etrasimod, prepared according to the literature method (the second isomer of Example 1.29 in WO2010/011316A1), purity: 98.47%. • Ozanimod, prepared according to the literature method (compound 86 in WO2011/060392A1), purity: 99.78%. • Sulfasalazine enteric-coated tablets, produced by Shanghai Fuda Pharmaceutical Co., Ltd., 0.25 g/tablet. Enteric coated tablets show yellow to brownish yellow after the coating is removed. • Solutol: Beijing Fengli Jingqiu Pharmaceutical Co., Ltd. • Solvent preparation: • DMSO, Solutol and 0.9% sodium chloride solution were mixed according to the volume ratio of 5:10:85 to prepare the solvent.
Preparation of compound of Example 3 and Etrasimod solution: 27 mg of test substances were taken respectively and dissolved in 45 mL of solvent to obtain corresponding test substance solution.
Ozanimod: 90 mg Ozanimod was dissolved in 45 mL solvent to obtain Ozanimod solution.
Preparation of SASP solution: six sulfasalazine enteric-coated tablets after grinding were added to 41.7 mL 0.5% CMC-Na, and then dissolved by ultrasonic to obtain SASP solution.
Due to the excipient factor of SASP drug preparation, the concentration should not be too high when suspended in 0.5% CMC-Na, otherwise the suspension was uneven and the mobility was poor, so the dose volume of SASP was doubled compared with the compound of Example 3 and Etrasimod.

T1 sequence (P21453 whole entry): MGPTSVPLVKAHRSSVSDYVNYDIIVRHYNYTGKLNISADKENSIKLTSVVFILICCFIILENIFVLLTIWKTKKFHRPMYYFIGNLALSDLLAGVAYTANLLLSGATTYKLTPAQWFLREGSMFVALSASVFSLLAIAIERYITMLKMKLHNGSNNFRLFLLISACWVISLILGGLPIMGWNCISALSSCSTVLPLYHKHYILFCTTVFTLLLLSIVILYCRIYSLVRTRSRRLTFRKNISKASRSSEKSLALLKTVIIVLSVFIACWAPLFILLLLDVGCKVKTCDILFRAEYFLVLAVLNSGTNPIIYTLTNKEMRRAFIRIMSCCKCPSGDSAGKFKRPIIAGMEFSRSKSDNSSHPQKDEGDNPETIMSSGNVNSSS

Row | SMILES | IC50 (S1P1) [nM] | Colon length [1] [cm] | Colon weight [1] [g] | Colon weight/colon length [1] [g/cm] | Ulcer area [1] [mm^2] | General anatomical view of colon, from excellent to poor [1] | Weight ([1]; Day 1) [g] | Weight ([1]; Day 2) [g] | Weight ([1]; Day 3) [g] | Weight ([1]; Day 4) [g] | Weight ([1]; Day 5) [g] | Weight ([1]; Day 6) [g] | Weight ([1]; Day 7) [g] | Weight ([1]; Day 8) [g] | Weight course compared with model group ([1]; SASP 360 mg/kg, Example 3 and Etrasimod 3 mg/kg, oral once a day) | Drug efficacy intensity (colon weight) [1]
1 | O=C(O)CCn1ccc2cc(OCc3ccc(C4CCCC4)c(C(F)(F)F)c3)cc(Cl)c21 [Compound of Example 3, 3-(7-chlorine-5-((4-cyclopentyl-3-(trifluoromethyl)benzyl)oxy)-1H-indole-1-yl)propionic acid] | 0.148 | 13.66 ± 0.63 | 2.07 ± 0.17 | 0.15 | 53.87 ± 24.01 | group using compound of Example 3>group using sulfasalazine>group using Etrasimod>group using Ozanimod | 247 ± 0.55 | 224.6 ± 0.51 | 226.3 ± 0.85 | 233.6 ± 1.45 | 238.5 ± 1.57 | 245 ± 1.74 | 258.8 ± 1.61 | 267.9 ± 1.44 | a certain tendency to inhibit the weight loss | group using the compound of Example 3 (3 mg/kg)>group using Etrasimod (3 mg/kg)>group using sulfasalazine (360 mg/kg)>model group>group using Ozanimod (10 mg/kg)
2 | O=C(O)C[C@H]1CCc2c1[nH]c1ccc(OCc3ccc(C4CCCC4)c(C(F)(F)F)c3)cc21 [Etrasimod, reference compound] | 4.71 | 13.56 ± 0.54 | 2.54 ± 0.25 | 0.19 | 177.97 ± 56.5 | group using compound of Example 3>group using sulfasalazine>group using Etrasimod>group using Ozanimod | 251.6 ± 0.5 | 225.5 ± 0.56 | 223.9 ± 0.94 | 221.8 ± 1.51 | 224.4 ± 1.73 | 230.1 ± 2.04 | 245.5 ± 1.85 | 255.8 ± 1.6 |  | group using the compound of Example 3 (3 mg/kg)>group using Etrasimod (3 mg/kg)>group using sulfasalazine (360 mg/kg)>model group>group using Ozanimod (10 mg/kg)
